Experimental data taken from US20100196355A1, “Immunophilin Ligands and Methods for Modulating Immunophilin and Calcium Channel Activity” (Wyeth, priority 2007, published 2010).

How the values were obtained:
[1] = system: Ca2+ channel in F-11 cells; assay: Whole-cell patch clamp recording of Ca2+ currents in F-11 cells; assay type: cell-based, rat and mouse hybrid
Experimental: The whole-cell configuration of the patch-clamp technique was used to record calcium currents from the cells at room temperature using an EPC-9 amplifier (HEKA, Instrutech Corp.) with the acquisition and analysis program Pulse-PulseFit from HEKA (Lambrecht, Germany). Electrodes were fabricated using a P-87 puller (Sutter Instrument). […] The standard bath recording solution is Ca^2+ and Mg^2+ free HBSS (pH 7.4) containing 10 mM HEPES, 10 mM dextrose, and 4 mM BaCl2. Currents were filtered at 3 kHz, and the inward Ca^2+ currents were recorded from cells held at −90 mV with 10 mV depolarizing steps from −80 mV to 60 mV for 50 ms.

[2] = system: FKBP52, FKBP25 and FKBP12; assay: Affinity chromatography on Compound 2 matrix (SDS-PAGE); assay type: binding, human; settings: protein retained on compound beads vs blank beads

SMILES	Ca2+ current density ([1]; 5 μM in the bath for 2 hrs)	decrease of Ca2+ current density vs vehicle ([1]; 5 μM in the bath for 2 hrs)	whole-cell Ca2+ currents, short bath application ([1]; 10 min application)	reduction of Ca2+ current ([1]; internal application 10 μM, within 10 min, cells responding to BAY-K5552 (L-type))	reduction of Ca2+ current ([1]; internal application, cells responding to ωCTX MVIIA (N-type))	binding to FKBP52, FKBP25 and FKBP12 [2]
CO[C@H]1C[C@@H]2CC[C@@H](C)[C@@](O)(O2)C(=O)C(=O)N2CCCCC2C(=O)O[C@H]([C@H](C)C[C@@H]2CC[C@@H](O)[C@H](OC)C2)CC(=O)[C@H](C)/C=C(\C)[C@@H](O)[C@@H](OC)C(=O)[C@H](C)C[C@H](C)C2C=C[C@H](/C=C/1C)ON2c1ccccc1 (stereo partly drawn) [Rapamycin analogue I, 9,27-dihydroxy-3-{2-[4-hydroxy-3-methoxycyclohexyl]-1-methylethyl}-10,21-dimethoxy-6,8,12,14,20,26-hexamethyl-37-phenyl-4,9,10,12,13,14,15,18,21,22,23,24,25,26,27,32,33,34,34a-nonadecahydro-3H-23,27-epoxy-18,15-(epoxyimino)pyrido[2,1-c][1,4]oxazacyclohentriacontine-1,5,11,28,29(6H, 31H)-pentone]	3.2+/−0.3 pA/pF	49%	not affected	46+/−1.8%	No significant current reduction	–
CO[C@H]1C[C@@H]2CC[C@@H](C)[C@@](O)(O2)C(=O)C(=O)N2CCCCC2C(=O)O[C@H]([C@H](C)C[C@@H]2CC[C@@H](O)[C@H](OC)C2)CC(=O)[C@H](C)/C=C(\C)[C@@H](O)[C@@H](OC)C(=O)[C@H](C)C[C@H](C)C2CC[C@H](/C=C/1C)ON2c1ccccc1 (stereo partly drawn) [Rapamycin analogue II, 9,27-dihydroxy-3-{2-[4-hydroxy-3-methoxycyclohexyl]-1-methylethyl}-10,21-dimethoxy-6,8,12,14,20,26-hexamethyl-37-phenyl-4,9,10,12,13,14,15,16,17,18,21,22,23,24,25,26,27,32,33,34,34a-henicosahydro-3H-23,27-epoxy-18,15-(epoxyimino)pyrido[2,1-c][1,4]oxazacyclohentriacontine-1,5,11,28,29(6H, 31H)-pentone]	–	–	–	–	–	binds
